Where two headings read alike, the source gives them in different places.
Experiments:
JH2 domain of human Tyk2 = JH2 domain of human Tyk2 (Homo sapiens (Human), UniProt P29597); test: JH2 Biochemical Assay (TR-FRET probe displacement); format: binding
Tyk2 = Tyk2 (Homo sapiens (Human), UniProt P29597); test: pSTAT4 Cell Assay (MSD, NK92 cells); format: cell-based
[1] = TR-FRET probe displacement, JH2 domain of human Tyk2
[2] = TR-FRET probe displacement, JH2 domain
[3] = JH2 domain of human Tyk2, TR-FRET probe displacement

Sequence of Tyk2 (P29597 whole entry, the tested form may be a part): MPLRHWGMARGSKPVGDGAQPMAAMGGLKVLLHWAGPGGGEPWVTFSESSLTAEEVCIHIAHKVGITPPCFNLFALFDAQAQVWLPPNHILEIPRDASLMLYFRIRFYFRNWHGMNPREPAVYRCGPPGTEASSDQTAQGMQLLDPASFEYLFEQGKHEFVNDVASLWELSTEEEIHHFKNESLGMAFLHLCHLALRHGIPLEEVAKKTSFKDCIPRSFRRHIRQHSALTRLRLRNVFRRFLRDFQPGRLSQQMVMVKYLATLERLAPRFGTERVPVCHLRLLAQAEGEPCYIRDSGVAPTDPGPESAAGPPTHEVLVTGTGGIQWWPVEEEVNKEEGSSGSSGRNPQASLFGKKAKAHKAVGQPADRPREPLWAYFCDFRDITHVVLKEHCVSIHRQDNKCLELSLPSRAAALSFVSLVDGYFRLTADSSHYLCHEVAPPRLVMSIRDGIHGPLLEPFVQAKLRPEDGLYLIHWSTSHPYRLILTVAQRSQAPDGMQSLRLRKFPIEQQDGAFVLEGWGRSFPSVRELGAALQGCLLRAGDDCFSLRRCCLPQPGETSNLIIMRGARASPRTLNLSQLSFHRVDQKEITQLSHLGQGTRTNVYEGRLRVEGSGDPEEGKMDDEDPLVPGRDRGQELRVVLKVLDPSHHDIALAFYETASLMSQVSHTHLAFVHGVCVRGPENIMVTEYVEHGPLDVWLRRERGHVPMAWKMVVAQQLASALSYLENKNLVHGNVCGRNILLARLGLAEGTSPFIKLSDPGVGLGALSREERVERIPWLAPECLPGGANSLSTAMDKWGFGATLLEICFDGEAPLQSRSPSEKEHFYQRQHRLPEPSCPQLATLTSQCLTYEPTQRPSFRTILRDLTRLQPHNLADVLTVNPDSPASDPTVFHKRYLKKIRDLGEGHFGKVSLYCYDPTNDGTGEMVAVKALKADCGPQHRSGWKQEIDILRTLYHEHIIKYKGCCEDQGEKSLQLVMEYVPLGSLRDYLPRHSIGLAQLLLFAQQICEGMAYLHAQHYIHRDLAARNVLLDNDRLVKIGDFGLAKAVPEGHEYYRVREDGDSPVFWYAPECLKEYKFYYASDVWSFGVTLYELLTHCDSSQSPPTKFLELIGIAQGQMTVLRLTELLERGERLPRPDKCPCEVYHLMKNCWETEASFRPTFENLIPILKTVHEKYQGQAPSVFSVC
Sequence of JH2 domain of human Tyk2 (P29597 575-876): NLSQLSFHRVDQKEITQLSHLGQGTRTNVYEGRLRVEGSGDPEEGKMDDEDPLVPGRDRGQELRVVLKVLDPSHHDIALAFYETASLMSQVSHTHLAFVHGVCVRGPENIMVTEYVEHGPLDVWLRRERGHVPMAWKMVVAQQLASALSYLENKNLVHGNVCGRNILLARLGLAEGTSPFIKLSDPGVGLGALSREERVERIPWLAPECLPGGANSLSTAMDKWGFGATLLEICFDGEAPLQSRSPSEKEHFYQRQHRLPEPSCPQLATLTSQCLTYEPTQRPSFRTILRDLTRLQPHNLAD

Compound | IC50 (JH2 domain of human Tyk2; [1]) [nM] | IC50 (Tyk2; MSD) [nM] | IC50 (JH2 domain of human Tyk2; [2]) [nM] | IC50 (Tyk2) [nM] | IC50 (JH2 domain of human Tyk2; [3]) [nM]
CC(=O)Nc1cc(Nc2cc(C(C)C)nc(C(C)(F)F)n2)c(OCc2ccccn2)cn1 [Example 365, N-(4-((2-(1,1-difluoroethyl)-6-isopropylpyrimidin-4-yl)amino)-5-(pyridin-2-ylmethoxy)pyridin-2-yl)acetamide] | ≤ 10 | ≤ 10 |  |  | 
CC(=O)Nc1cc(Nc2cc(C)nc(C(C)(F)F)n2)c(-c2nc(CN(C)C)cs2)cn1 [Example 784, N-(4-((2-(1,1-difluoroethyl)-6-methylpyrimidin-4-yl)amino)-5-(4-((dimethylamino)methyl)thiazol-2-yl)pyridin-2-yl)acetamide] |  |  | ≤ 10 | ≤ 10 | 
CC(=O)Nc1cc(Nc2cc(C)nc(C(C)(F)F)n2)c(-c2cc(C#N)ccn2)cn1 [Example 631, N-(4-cyanO4′-((2-(1,1-difluoroethyl)-6-methylpyrimidin-4-yl)amino)-[2,3′-bipyridin]-6′-yl)acetamide] |  | 10 to 100 |  |  | ≤ 10
CCc1cc(Nc2cc(NC(C)=O)ncc2-c2ncc(OC(F)F)cn2)nc(C(C)(F)F)n1 [Example 848, N-(4-((2-(1,1-difluoroethyl)-6-ethylpyrimidin-4-yl)amino)-5-(5-(difluoromethoxy)pyrimidin-2-yl)pyridin-2-yl)acetamide] |  |  | ≤ 10 | ≤ 10 | 
CCc1cc(Nc2cc(NC(C)=O)ncc2-c2cnc(OC)cn2)nc(C(C)(F)F)n1 [Example 829, N-(4-((2-(1,1-difluoroethyl)-6-ethylpyrimidin-4-yl)amino)-5-(5-methoxypyrazin-2-yl)pyridin-2-yl)acetamide] |  |  | ≤ 10 | 10 to 100 | 
CC(=O)Nc1cc(Nc2cc(C)nc(C(C)(F)F)n2)c(-c2cn3c(n2)OCC3)cn1 [Example 770, N-(4-((2-(1,1-difluoroethyl)-6-methylpyrimidin-4-yl)amino)-5-(2,3-dihydroimidazo[2,1-b]oxazol-6-yl)pyridin-2-yl)acetamide] |  |  | ≤ 10 | ≤ 10 | 
COc1cnn(-c2cnc(NC(C)=O)cc2Nc2cc(C)nc(C(C)(F)F)n2)c1 [Example 731, N-(4-((2-(1,1-difluoroethyl)-6-methylpyrimidin-4-yl)amino)-5-(4-methoxy-1H-pyrazol-1-yl)pyridin-2-yl)acetamide] |  | 10 to 100 |  |  | ≤ 10
CCc1cc(Nc2cc(NC(C)=O)ncc2-c2cnc(C(C)(C)O)cn2)nc(C(C)(F)F)n1 [Example 855, N-(4-((2-(1,1-difluoroethyl)-6-ethylpyrimidin-4-yl)amino)-5-(5-(2-hydroxypropan-2-yl)pyrazin-2-yl)pyridin-2-yl)acetamide] |  |  | ≤ 10 | ≤ 10 | 
CC(=O)Nc1cc(Nc2cc(C)nc(C(C)(F)F)n2)c(-c2cc(C(C)C)ncn2)cn1 [Example 245, N-(4-((2-(1,1-difluoroethyl)-6-methylpyrimidin-4-yl)amino)-5-(6-isopropylpyrimidin-4-yl)pyridin-2-yl)acetamide] | ≤ 10 | 10 to 100 |  |  | 
CCc1cc(Nc2cc(NC(=O)OC)ncc2OCCN(C)C)nc(C(C)(F)F)n1 [Example 92, methyl (4-((2-(1,1-difluoroethyl)-6-ethylpyrimidin-4-yl)amino)-5-(2-(dimethylamino)ethoxy)pyridin-2-yl)carbamate] | ≤ 10 | 10 to 100 |  |  | 
COCCN(C)c1nc(-c2cnc(NC(C)=O)cc2Nc2cc(C)nc(C(C)(F)F)n2)cs1 [Example 772, N-(4-((2-(1,1-difluoroethyl)-6-methylpyrimidin-4-yl)amino)-5-(2-((2-methoxyethyl)(methyl)amino)thiazol-4-yl)pyridin-2-yl)acetamide] |  |  | ≤ 10 | ≤ 10 | 
COC1(C)CN(Cc2ccc(-c3cnc(NC(C)=O)cc3Nc3ccnc(C(C)(F)F)n3)nc2)C1 [Example 882, N-(4′-((2-(1,1-difluoroethyl)pyrimidin-4-yl)amino)-5-((3-methoxy-3-methylazetidin-1-yl)methyl)-[2,3′-bipyridin]-6′-yl)acetamide] |  |  | ≤ 10 | ≤ 10 | 
